Literature values in PMC6647941 (ACS Omega, 2019).

Conditions: dopamine transporter tracer ref 12

CN1[C@H]2CC[C@@H]1[C@@H](CN(CC[S-])CC[N-]CC[S-])[C@@H](c1ccc(Cl)cc1)C2.[O]=[99Tc+4] [^99mTc-TRODAT-1]
brain uptake: 0.40 % ID/g
